The values that follow come from patent publication US20230042936A1, “PYRIDO[2,3-d]PYRIMIDIN-7(8H)-ONES AS CDK INHIBITORS” (PROSENESTAR LLC, priority 2020, published 2023).

By GI50 is commonly meant the concentration at which growth is held to half of that of the control.

One experiment concerns the target CDK3/CycC (Homo sapiens, UniProt Q00526). Briefly: Kinase profiling. Format: biochemical. The settings on record: 10 semi-logarithmic dilutions from 50 μM, singlicate.
A further experiment has as its target CDK19/CycC (Homo sapiens, UniProt Q9BWU1). In words: Kinase profiling. Format: biochemical. The following applies: 10 semi-logarithmic dilutions from 50 μM, singlicate.
The target in a further experiment is CDK1/CycA2 (Homo sapiens, UniProt P06493). Briefly: Kinase profiling. The class given is biochemical.
Another experiment concerns the target CDK6/CycD3 (Homo sapiens, UniProt Q00534). In words: Kinase profiling. Format: biochemical. The settings on record: 10 semi-logarithmic dilutions from 50 μM, singlicate.
A further experiment addresses CDK6/CycD1 (Homo sapiens, UniProt Q00534). Briefly: Kinase profiling. The class given is biochemical. The following applies: 10 semi-logarithmic dilutions from 50 μM, singlicate.
A further experiment deals with DYRK1A (Homo sapiens, UniProt Q13627). Briefly: Kinase profiling. The settings on record: 10 semi-logarithmic dilutions from 50 μM, singlicate. The class given is biochemical.
In a further experiment the target is CDK5/p35NCK (Homo sapiens, UniProt Q00535). In words: Kinase profiling. Format: biochemical.
The next experiment addresses CDC7/DBF4 (Homo sapiens, UniProt O00311). Briefly: Kinase profiling. The class given is biochemical. The settings on record: 10 semi-logarithmic dilutions from 50 μM, singlicate; read-out: IC50 CDC7/DBF4.
For experiment [1], the system named is MCF10 non-transformed mammary epithelial cell line. Briefly: Proliferation assay: determination of GI50. The following applies: Table 3, 48 h, n = 2 independent experiments. Format: cell-based, human. On the procedure: (§1) The following human tumor cell lines, all Retinoblastoma (Rb)-proficient, were used in this study: MDA-MB231 (breast cancer), MDA-MB453 (breast cancer), U87MG (glioblastoma) and H460 (lung cancer). MDA-MB468 (breast cancer) and SW1783 (glioblastoma) Rb-deficient cells were also included in the study, as well as the MCF10A non-transformed mammary epithelial cell line. Tumor cell lines were maintained in DMEM or RPMI-1640 medium, depending on the cell line, supplemented with 10% FBS. MCF10A cells were grown in complete mammary epithelial growth medium (MEGM, Lonza). Cell lines were authenticated by short tandem repeat (STR) loci profiling with the GenePrint® 10 System (Promega).
(§2) All human cancer cell lines (Table 2) were obtained from the American Type Culture Collection, and were maintained in DMEM (Hyclone) or RPMI-1640 medium (Sigma) supplemented with 10% fetal bovine serum (Sigma). Non-transformed MCF10 cell line was maintained in MEGM Mammary Epithelial Cell Growth Medium (Lonza). Immortalized mouse embryonic fibroblasts (MEFs) were maintained in DMEM with 10% fetal bovine serum.
(§3) 48 h later cells were fixed with PFA 4% for 15 minutes, stained with 10 μg/ml Hoechst 33342 (Molecular Probes, Thermo Fisher) for 30 minutes and washed twice with PBS. Cells were imaged in a high content screening system (Opera Phoenix™, Perkin Elmer) using a 20× dry objective (30 fields/well). Cell counts were determined by the Opera software (Perkin Elmer) and data were further processed with SPSS software. GI50 was calculated by estimating the absolute IC50 using dose-response inhibition tool in Prism6 (Graphpad Software Inc.).

For experiment [2], the system named is U87MG glioblastoma cell line. Briefly: Proliferation assay: determination of GI50. Format: cell-based, human. On the procedure:
as §1, §2, §3

For experiment [3], the system named is H460 lung carcinoma cell line. Briefly: Proliferation assay: determination of GI50. The class given is cell-based, human. The following applies: Table 3, 48 h, n = 2 independent experiments. The method, then: as §1, §2, §3
Experiment [4] relates to MDA-MB-231 breast carcinoma cell line. In words: Proliferation assay: determination of GI50. Format: cell-based, human. The method, then: as §1, §2, §3
In a further experiment the target is CDK2/CycE1 (Homo sapiens, UniProt P24941). Briefly: Kinase profiling. Format: biochemical.
In a further experiment the target is CDK12wt/CycK (Homo sapiens, UniProt Q9NYV4). Briefly: Kinase profiling. Format: biochemical. The settings on record: 10 semi-logarithmic dilutions from 50 μM, singlicate.
The target in a further experiment is ERK1 (Homo sapiens, UniProt P27361). Briefly: Kinase profiling. The class given is biochemical. The settings on record: 10 semi-logarithmic dilutions from 50 μM, singlicate.
The target of a further experiment is HIPK2 (Homo sapiens, UniProt Q9H2X6). Briefly: Kinase profiling. The following applies: 10 semi-logarithmic dilutions from 50 μM, singlicate; read-out: IC50 HIPK2. The class given is biochemical.
Another experiment deals with CDK1/CycB1 (Homo sapiens, UniProt P06493). Briefly: Kinase profiling. Format: biochemical.
A further experiment deals with CDK7/CycH/MAT1 (Homo sapiens, UniProt P50613). Briefly: Kinase profiling. The following applies: 10 semi-logarithmic dilutions from 50 μM, singlicate. The class given is biochemical.
The target of another experiment is CDK1/CycE1 (Homo sapiens, UniProt P06493). In words: Kinase profiling. The class given is biochemical.
A further experiment addresses PIM1 (Homo sapiens, UniProt P11309). Briefly: Kinase profiling. The class given is biochemical. The following applies: 10 semi-logarithmic dilutions from 50 μM, singlicate.
In a further experiment the target is CDK4/CycD1 (Homo sapiens, UniProt P11802). In words: Kinase profiling. The class given is biochemical. The following applies: 10 semi-logarithmic dilutions from 50 μM, singlicate.
Experiment [5] has as its target panel of 27 kinases (CDK family members). In words: Kinase profiling, results in words. The class given is biochemical. The settings on record: from Table 1.
Where [6] appears, read: 10 semi-logarithmic dilutions from 50 μM, singlicate.
Where [7] appears, read: Homo sapiens, U-87 MG, Table 3, 48 h, n = 3 independent experiments, read-out: GI50 U87MG.
Where [8] appears, read: Homo sapiens, MDA-MB-231, Table 3, 48 h, n = 3 independent experiments, read-out: GI50 MDA-MB231.

Each structure is given as a SMILES string. Like-named read-outs stand apart in the source and are kept apart here.

Sequence of HIPK2 (Q9H2X6 whole entry): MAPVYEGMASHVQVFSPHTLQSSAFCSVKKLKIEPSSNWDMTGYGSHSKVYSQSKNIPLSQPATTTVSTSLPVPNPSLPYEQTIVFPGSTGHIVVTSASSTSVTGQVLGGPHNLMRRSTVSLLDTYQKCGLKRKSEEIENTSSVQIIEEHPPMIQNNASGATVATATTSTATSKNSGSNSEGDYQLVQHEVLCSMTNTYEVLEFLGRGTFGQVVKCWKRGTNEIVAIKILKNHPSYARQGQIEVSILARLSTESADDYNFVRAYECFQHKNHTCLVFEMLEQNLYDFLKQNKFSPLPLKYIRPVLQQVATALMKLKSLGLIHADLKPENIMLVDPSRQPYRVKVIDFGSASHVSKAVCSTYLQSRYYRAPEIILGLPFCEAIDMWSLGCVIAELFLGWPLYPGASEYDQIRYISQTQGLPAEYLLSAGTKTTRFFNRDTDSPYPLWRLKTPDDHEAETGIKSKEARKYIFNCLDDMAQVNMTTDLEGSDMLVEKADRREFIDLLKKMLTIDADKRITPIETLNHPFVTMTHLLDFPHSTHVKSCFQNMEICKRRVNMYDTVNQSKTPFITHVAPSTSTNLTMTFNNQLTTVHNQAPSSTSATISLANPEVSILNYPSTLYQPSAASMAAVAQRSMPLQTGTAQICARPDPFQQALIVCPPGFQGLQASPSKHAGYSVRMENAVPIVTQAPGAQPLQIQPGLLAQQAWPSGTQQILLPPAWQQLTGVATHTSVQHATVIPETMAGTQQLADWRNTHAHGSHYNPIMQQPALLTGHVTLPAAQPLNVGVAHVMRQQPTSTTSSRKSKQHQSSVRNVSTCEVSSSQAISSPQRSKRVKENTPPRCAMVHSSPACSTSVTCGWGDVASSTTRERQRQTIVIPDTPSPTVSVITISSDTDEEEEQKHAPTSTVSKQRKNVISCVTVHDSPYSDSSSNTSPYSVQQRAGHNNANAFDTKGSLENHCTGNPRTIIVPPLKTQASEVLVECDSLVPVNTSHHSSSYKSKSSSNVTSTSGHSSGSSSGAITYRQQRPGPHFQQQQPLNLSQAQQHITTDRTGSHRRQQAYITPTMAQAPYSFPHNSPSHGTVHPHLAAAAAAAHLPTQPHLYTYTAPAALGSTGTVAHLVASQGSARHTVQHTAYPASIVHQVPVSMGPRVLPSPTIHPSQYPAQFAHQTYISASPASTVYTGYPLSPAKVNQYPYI
Sequence of CDK5/p35NCK (Q00535 whole entry): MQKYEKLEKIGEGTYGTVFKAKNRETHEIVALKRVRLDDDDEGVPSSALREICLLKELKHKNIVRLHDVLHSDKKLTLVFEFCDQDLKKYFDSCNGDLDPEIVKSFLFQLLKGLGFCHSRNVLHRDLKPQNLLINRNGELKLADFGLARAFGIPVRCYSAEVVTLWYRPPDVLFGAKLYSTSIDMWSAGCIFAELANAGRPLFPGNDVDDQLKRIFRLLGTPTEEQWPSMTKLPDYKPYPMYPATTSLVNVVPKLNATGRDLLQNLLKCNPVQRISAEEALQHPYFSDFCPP
Sequence of CDK5/p35NCK (Q15078 whole entry partner): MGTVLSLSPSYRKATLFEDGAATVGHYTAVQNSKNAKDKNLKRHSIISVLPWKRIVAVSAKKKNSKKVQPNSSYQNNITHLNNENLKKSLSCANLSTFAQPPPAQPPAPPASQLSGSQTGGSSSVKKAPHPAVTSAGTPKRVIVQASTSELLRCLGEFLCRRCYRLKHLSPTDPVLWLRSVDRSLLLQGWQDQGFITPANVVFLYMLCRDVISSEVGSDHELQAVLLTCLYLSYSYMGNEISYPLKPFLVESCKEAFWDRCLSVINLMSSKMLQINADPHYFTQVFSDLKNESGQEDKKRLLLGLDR
Sequence of PIM1 (P11309 whole entry, species assumed): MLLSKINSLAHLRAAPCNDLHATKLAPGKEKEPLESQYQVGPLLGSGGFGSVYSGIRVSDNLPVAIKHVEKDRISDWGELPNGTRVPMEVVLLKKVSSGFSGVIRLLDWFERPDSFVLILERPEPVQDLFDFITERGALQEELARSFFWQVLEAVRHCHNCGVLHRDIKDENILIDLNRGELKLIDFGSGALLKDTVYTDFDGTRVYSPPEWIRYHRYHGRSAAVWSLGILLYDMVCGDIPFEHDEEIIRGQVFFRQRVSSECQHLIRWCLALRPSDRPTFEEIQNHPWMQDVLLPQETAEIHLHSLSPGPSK
Sequence of ERK1 (P27361 whole entry): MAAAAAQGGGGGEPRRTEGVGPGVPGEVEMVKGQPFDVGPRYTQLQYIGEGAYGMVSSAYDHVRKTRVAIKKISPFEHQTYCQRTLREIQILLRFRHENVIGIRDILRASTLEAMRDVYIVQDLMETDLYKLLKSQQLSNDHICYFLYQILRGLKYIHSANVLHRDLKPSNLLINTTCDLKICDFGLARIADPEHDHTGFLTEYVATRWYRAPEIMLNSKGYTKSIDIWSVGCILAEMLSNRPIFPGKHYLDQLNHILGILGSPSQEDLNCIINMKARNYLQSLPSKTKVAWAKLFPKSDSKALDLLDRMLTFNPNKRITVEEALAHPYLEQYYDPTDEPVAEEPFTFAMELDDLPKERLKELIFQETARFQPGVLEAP
Sequence of CDK19/CycC (Q9BWU1 whole entry): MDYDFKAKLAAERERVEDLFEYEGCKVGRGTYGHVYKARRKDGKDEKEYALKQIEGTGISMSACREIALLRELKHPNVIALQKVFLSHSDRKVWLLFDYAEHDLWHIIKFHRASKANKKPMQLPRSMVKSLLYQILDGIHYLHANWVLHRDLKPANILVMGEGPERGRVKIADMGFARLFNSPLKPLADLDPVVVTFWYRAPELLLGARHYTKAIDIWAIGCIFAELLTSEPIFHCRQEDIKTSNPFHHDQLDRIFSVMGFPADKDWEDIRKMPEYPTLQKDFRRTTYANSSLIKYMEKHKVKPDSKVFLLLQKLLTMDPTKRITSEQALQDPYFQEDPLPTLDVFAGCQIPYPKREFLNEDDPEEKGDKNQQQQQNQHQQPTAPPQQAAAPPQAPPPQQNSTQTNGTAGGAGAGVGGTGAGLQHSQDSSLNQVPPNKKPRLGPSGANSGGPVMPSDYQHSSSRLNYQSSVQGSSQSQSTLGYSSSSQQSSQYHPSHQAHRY
Sequence of CDK19/CycC (P24863 whole entry partner): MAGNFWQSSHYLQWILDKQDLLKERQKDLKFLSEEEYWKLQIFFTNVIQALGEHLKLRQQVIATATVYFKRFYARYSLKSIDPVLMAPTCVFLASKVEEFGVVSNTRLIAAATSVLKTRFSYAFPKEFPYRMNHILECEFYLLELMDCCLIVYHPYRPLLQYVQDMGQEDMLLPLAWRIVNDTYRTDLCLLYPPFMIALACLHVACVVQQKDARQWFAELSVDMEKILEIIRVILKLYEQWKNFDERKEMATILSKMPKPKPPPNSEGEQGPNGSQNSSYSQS
Sequence of CDK3/CycC (Q00526 whole entry): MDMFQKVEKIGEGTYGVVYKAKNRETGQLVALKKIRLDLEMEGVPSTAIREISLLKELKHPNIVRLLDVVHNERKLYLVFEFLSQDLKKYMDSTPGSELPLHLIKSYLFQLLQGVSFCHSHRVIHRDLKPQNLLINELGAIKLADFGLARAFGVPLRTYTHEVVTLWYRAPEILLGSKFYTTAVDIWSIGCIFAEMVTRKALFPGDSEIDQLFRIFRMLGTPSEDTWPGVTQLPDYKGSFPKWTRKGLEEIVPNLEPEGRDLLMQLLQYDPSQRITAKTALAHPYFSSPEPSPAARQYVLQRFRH
Sequence of CDK3/CycC (P24863 whole entry partner): as the sequence (P24863 whole entry partner) above
Sequence of CDK1/CycB1 (P06493 whole entry): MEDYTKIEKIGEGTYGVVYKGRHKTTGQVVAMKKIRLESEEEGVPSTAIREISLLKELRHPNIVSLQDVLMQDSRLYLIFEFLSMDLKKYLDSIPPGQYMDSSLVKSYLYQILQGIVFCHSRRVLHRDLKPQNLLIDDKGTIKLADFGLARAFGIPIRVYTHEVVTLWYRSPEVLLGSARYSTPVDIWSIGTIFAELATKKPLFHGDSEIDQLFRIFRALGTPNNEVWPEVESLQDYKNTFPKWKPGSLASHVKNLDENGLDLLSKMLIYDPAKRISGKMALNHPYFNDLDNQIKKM
Sequence of CDK1/CycB1 (P14635 whole entry partner): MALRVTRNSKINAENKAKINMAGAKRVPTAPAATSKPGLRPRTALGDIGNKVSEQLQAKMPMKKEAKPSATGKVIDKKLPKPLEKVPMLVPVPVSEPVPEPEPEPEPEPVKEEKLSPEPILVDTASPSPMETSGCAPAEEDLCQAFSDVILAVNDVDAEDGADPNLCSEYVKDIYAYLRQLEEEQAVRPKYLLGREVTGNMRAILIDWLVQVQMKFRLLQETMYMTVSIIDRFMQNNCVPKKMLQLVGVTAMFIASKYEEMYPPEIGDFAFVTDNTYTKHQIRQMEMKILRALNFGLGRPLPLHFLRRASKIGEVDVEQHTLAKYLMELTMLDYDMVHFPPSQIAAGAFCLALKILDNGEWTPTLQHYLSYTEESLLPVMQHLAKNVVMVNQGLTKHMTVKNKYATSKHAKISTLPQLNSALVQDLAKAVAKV

Turning to `O=c1ccc2cnc(Nc3ccc(N4CCC(CCCO)CC4)cc3)nc2n1C1CC2CCC1C2` (stereo not shown) [PD-0183812, reference compound], the IC50 came to 5.21 µM at CDK3/CycC; 17.4 µM on CDK19/CycC; 28.8 µM against CDK1/CycA2; 0.301 µM at CDK6/CycD3; 0.0199 µM on CDK6/CycD1; 31.9 µM on DYRK1A. In addition, the IC50 against CDK5/p35NCK was 1.84 µM; on CDC7/DBF4, 18.8 µM; against CDK2/CycE1 it was 0.122 µM; at CDK12wt/CycK it was 3.16 µM; against ERK1, 29.6 µM; on HIPK2 it was above 50 µM. Further, the IC50 against CDK1/CycB1 was found to be 32.1 µM; against CDK7/CycH/MAT1, 45.4 µM; at CDK1/CycE1, 8.09 µM; against PIM1 it was 35.9 µM; against CDK4/CycD1, 0.0316 µM. Besides, the GI50 in experiment [1] amounted to 3.3 µM; in experiment [2] (Table 3, 48 h, n = 3 independent experiments, read-out: GI50 U87MG) it was 7.45 µM; in experiment [3], 1.57 µM; in experiment [4] (Table 3, 48 h, n = 3 independent experiments, read-out: GI50 MDA-MB231), 2.15 µM.

`O=c1ccc2cnc(Nc3ccc(N4CCC(CCCO)CC4)cc3F)nc2n1[C@@H]1CC2CCC1C2` (stereo partly drawn) [PS002, 8-((2R)-bicyclo[2.2.1]heptan-2-yl)-2-((2-fluoro-4-(4-(3-hydroxypropyl)piperidin-1-yl)phenyl)amino)pyrido[2,3-d]pyrimidin-7(8H)-one]: the IC50 was 27.1 µM on CDK3/CycC; 24.9 µM against CDK19/CycC; 34 µM against CDK1/CycA2 (setting [6]); 12.6 µM against CDK6/CycD3; 0.485 µM against CDK6/CycD1; above 50 µM against DYRK1A. Further, the IC50 was 38.6 µM at CDK5/p35NCK (setting [6]); 14.6 µM on CDC7/DBF4; 7.29 µM against CDK2/CycE1 (setting [6]); 28.4 µM against CDK12wt/CycK; 47.5 µM at ERK1; above 50 µM at HIPK2. In addition, the IC50 against CDK1/CycB1 (setting [6]) worked out at 42.1 µM; against CDK7/CycH/MAT1, 40.7 µM; against CDK1/CycE1 (setting [6]) it was 14.6 µM; against PIM1, 27.9 µM; on CDK4/CycD1, 1.27 µM. Further, the GI50 is 34.6 µM in experiment [1] (Homo sapiens, MCF10); above 50 µM in [2] (setting [7]); 18 µM in experiment [3] (Homo sapiens, NCI-H460); 35.2 µM in experiment [4] (setting [8]).

For `O=c1ccc2cnc(Nc3ccc(N4CCC(CCCO)CC4)c(F)c3)nc2n1[C@@H]1CC2CCC1C2` (stereo partly drawn) [PS003, 8-((2R)-bicyclo[2.2.1]heptan-2-yl)-2-((3-fluoro-4-(4-(3-hydroxypropyl)piperidin-1-yl)phenyl)amino)pyrido[2,3-d]pyrimidin-7(8H)-one], the IC50 against CDK3/CycC was 3.95 µM; on CDK19/CycC, 19.2 µM; against CDK1/CycA2 (setting [6]), 7.86 µM; on CDK6/CycD3, 0.623 µM; at CDK6/CycD1 it was 0.0732 µM; on DYRK1A, above 50 µM. In addition, the IC50 against CDK5/p35NCK (setting [6]) was 1.92 µM; on CDC7/DBF4, 7.61 µM; against CDK2/CycE1 (setting [6]), 0.545 µM; on CDK12wt/CycK, 3.18 µM; at ERK1 it was above 50 µM; on HIPK2 it was above 50 µM. The IC50 was 4.69 µM on CDK1/CycB1 (setting [6]); 20 µM at CDK7/CycH/MAT1; 2.97 µM on CDK1/CycE1 (setting [6]); above 50 µM against PIM1; 0.15 µM at CDK4/CycD1. For the same molecule, the GI50 is 7.5 µM in experiment [1] (Homo sapiens, MCF10); 4.1 µM in experiment [2] (setting [7]); 1.6 µM in experiment [3] (Homo sapiens, NCI-H460); 3.9 µM in [4] (setting [8]).

For `CC(O)CCC1CCN(c2ccc(Nc3ncc4ccc(=O)n([C@@H]5CC6CCC5C6)c4n3)cc2)CC1` (stereo partly drawn) [PS004, 8-((2R)-bicyclo[2.2.1]heptan-2-yl)-2-((4-(4-(3-hydroxybutyl)piperidin-1-yl)phenyl)amino)pyrido[2,3-d]pyrimidin-7(8H)-one], the IC50 was 2.1 µM on CDK3/CycC; 9.6 µM on CDK19/CycC; 14.5 µM against CDK1/CycA2 (setting [6]); 0.442 µM on CDK6/CycD3; 0.0274 µM on CDK6/CycD1; above 50 µM on DYRK1A. Moreover, the IC50 was 1.67 µM at CDK5/p35NCK (setting [6]); 9.9 µM at CDC7/DBF4; 0.303 µM on CDK2/CycE1 (setting [6]); 0.923 µM at CDK12wt/CycK; 37.8 µM at ERK1; above 50 µM at HIPK2. Moreover, the IC50 on CDK1/CycB1 (setting [6]) was 16.4 µM; on CDK7/CycH/MAT1, 21.7 µM; against CDK1/CycE1 (setting [6]) it was 3.32 µM; on PIM1, above 50 µM; against CDK4/CycD1, 0.0353 µM. The 50% growth inhibitory concentration (GI50) is 1.43 µM in experiment [1] (Homo sapiens, MCF10); 4.5 µM in experiment [2] (setting [7]); 5.5 µM in experiment [2] (Homo sapiens, U-87 MG, Table 4, n = 4, read-out: Growth inhibition GI50, Glioblastoma pRB Wild-Type U87MG); 1.4 µM in experiment [3] (Homo sapiens, NCI-H460); 3.6 µM in experiment [4] (setting [8]); 3.5 µM in experiment [4] (Homo sapiens, MDA-MB-231, Table 4, n = 4, read-out: Growth inhibition GI50, Breast cancer pRB Wild-Type MDA-MB-231). For the same molecule, the “kinase affinity profile” value in experiment [5] is reported as “affinity not only for CDK4/6 but also for CDK2/9”.

In the case of `CC(O)CCN1CCN(c2ccc(Nc3ncc4ccc(=O)n([C@@H]5CC6CCC5C6)c4n3)cc2)CC1` (stereo partly drawn) [PS005, 8-((2R)-bicyclo[2.2.1]heptan-2-yl)-2-((4-(4-(3-hydroxybutyl)piperazin-1-yl)phenyl)amino)pyrido[2,3-d]pyrimidin-7(8H)-one], the IC50 was 0.0541 µM against CDK3/CycC; 0.234 µM on CDK19/CycC; 0.18 µM against CDK1/CycA2 (setting [6]); 0.0169 µM on CDK6/CycD3; below 0.0015 µM against CDK6/CycD1; 1.38 µM against DYRK1A. Moreover, the IC50 at CDK5/p35NCK (setting [6]) was found to be 0.0347 µM; at CDC7/DBF4, 1.53 µM; against CDK2/CycE1 (setting [6]) it was 0.0172 µM; at CDK12wt/CycK, 0.0308 µM; at ERK1, 4.53 µM; at HIPK2, 6.06 µM. The IC50 against CDK1/CycB1 (setting [6]) was 0.0407 µM; against CDK7/CycH/MAT1, 0.0723 µM; against CDK1/CycE1 (setting [6]) it was 0.173 µM; against PIM1 it was 7.19 µM; on CDK4/CycD1, below 0.0015 µM. The GI50 was determined as 0.05 µM in experiment [1] (Homo sapiens, MCF10); 0.05 µM in experiment [2] (setting [7]); 0.13 µM in experiment [3] (Homo sapiens, NCI-H460); 0.14 µM in [4] (setting [8]). In experiment [5], the “kinase affinity profile” value is listed as “bind many other CDK family members”.
